For 3 compounds, IC50 and EC50 results are on record in ChEMBL document CHEMBL3351623, “Pim kinase inhibitors for the treatment of cancer and possibly more” (ACS Med Chem Lett, 2014).

What all share (format): functional, cell-based
The test system of assay [1] is BaF3. Briefly: Antiproliferative activity against PIM1-dependent mouse BAF3 cells.
Assay [2] relates to BaF3. Briefly: Antiproliferative activity against IL3-dependent mouse BAF3 cells.
Assay [3] can be described thus: Antiproliferative activity against human MM1S cells. To be noted: MM1.S.

As to `Cn1ncc(NC(=O)c2nc(-c3c(F)cccc3F)sc2N)c1[C@]12CC[C@H](O1)[C@@H](N)CC2`, in assay [1], the IC50 was 19.2 nM.

As to `C[C@H]1O[C@@H](c2c(NC(=O)c3csc(-c4c(F)cccc4F)n3)cnn2C)C[C@@H](N)[C@]1(C)O` (single isomer, unassigned), the IC50 is 96.8 nM in assay [1] and > 25000 nM in assay [2]. In assay [3], the response was half-maximal at 6900 nM (EC50).

On to `Cn1ncc(NC(=O)c2csc(-c3c(F)cc([C@H]4CCCO4)cc3F)n2)c1[C@@H]1CC[C@@H](N)[C@H](F)CO1` (single isomer, unassigned), for which the IC50 in assay [1] was determined as 37.2 nM; in assay [2] it was 12200 nM. Besides, in assay [3], the EC50 was found to be 1700 nM.

The IC50 is the concentration that inhibits the measured activity by half. One may read the EC50 as the concentration that produces a half-maximal response. Read a low EC50 as greater potency.
